Tests used:
Type in all cases: in vivo
[1] = system: Lolium perenne; experiment: Post-emergence herbicidal assay, 96 cell trays, glasshouse; settings: 168 h, second trial (Table 2), Lollium, assessed 7 days after treatment, read-out: % control of plant growth; for pest or weed control at 200 g/ha: 0.2 kg/ha; for pest or weed control at 1000 g/ha: 1 kg/ha; for pest or weed control at 5000 g/ha: 5 kg/ha
In short: (§1)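 Screened at 0.2, 1 and 5 kg/ha in 25% acetone/75% water/0.01% Tween 20, applied to soil 1 day after sowing (pre-emergence) or sprayed on seedlings two weeks after sowing (post-emergence). Three replicates, uncontrolled glasshouse; % control of plant growth per cell assessed 7 days after treatment.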

[2] = system: Stellaria media—Chickweed; experiment: as above; settings: 168 h, second trial (Table 2), assessed 7 days after treatment, read-out: % control of plant growth; for pest or weed control at 200 g/ha: 0.2 kg/ha; for pest or weed control at 1000 g/ha: 1 kg/ha; for pest or weed control at 5000 g/ha: 5 kg/ha
In short: as §1

[3] = system: Lolium perenne; experiment: Pre-emergence herbicidal assay, 96 cell trays, glasshouse; settings: 168 h, second trial (Table 2), Lollium, assessed 7 days after treatment, read-out: % control of plant growth; for pest or weed control at 200 g/ha: 0.2 kg/ha; for pest or weed control at 1000 g/ha: 1 kg/ha; for pest or weed control at 5000 g/ha: 5 kg/ha
In short: as §1

[4] = system: Stellaria media—Chickweed; experiment: as above; settings: 168 h, second trial (Table 2), assessed 7 days after treatment, read-out: % control of plant growth; for pest or weed control at 200 g/ha: 0.2 kg/ha; for pest or weed control at 1000 g/ha: 1 kg/ha; for pest or weed control at 5000 g/ha: 5 kg/ha
In short: as §1

[5] = system: 2 weed species (Stellaria media—Chickweed and Lolium perenne); experiment: Herbicidal activity screen, summary in words over both weed species; settings: pre- and post-emergence, 0.2, 1 and 5 kg/ha
Protocol: The compounds were screened at three concentrations (0.2, 1 and 5 kg/ha) against 2 weed species (Stellaria media—Chickweed and Lolium perenne). The seeds were sown in the cells of 96 cell trays (4-6 seeds per cell). For the pre-emergence assay, 75 μL of a suspension of the test compound, at the above doses, was added on top of the soil 1 day after sowing. For the post-emergence assay, the seedlings were sprayed with 200 μL of a suspension of the test compound two weeks after sowing. The formulation used is 25% acetone and 75% water/0.01% Tween 20. Each treatment was replicated three times. The plants were kept in a glasshouse (uncontrolled conditions) and assessed 7 days after treatment. A small number of compounds were tested in a first trial. A larger number of compounds were tested in a second trial. The assessment was based on the % control of plant growth in each cell.

Row | SMILES | pest or weed control at 200 g/ha [1] [%] | pest or weed control at 1000 g/ha [1] [%] | pest or weed control at 5000 g/ha [1] [%] | pest or weed control at 200 g/ha [2] [%] | pest or weed control at 1000 g/ha [2] [%] | pest or weed control at 5000 g/ha [2] [%] | pest or weed control at 200 g/ha [3] [%] | pest or weed control at 1000 g/ha [3] [%] | pest or weed control at 5000 g/ha [3] [%] | pest or weed control at 200 g/ha [4] [%] | pest or weed control at 1000 g/ha [4] [%] | pest or weed control at 5000 g/ha [4] [%] | herbicidal activity [5]
1 | C#CCN1C(=O)C2(CC2)Oc2cc(F)c(N3C(=O)CCC3=O)cc21 [Example 28, 1-(7-Fluoro-3-oxo-4-(prop-2-yn-1-yl)-3,4-dihydrospiro[benzo[b][1,4]oxazine-2,1′-cyclopropan]-6-yl)pyrrolidine-2,5-dione] | 20 to 80 | 80 to 100 | 80 to 100 | 80 to 100 | 80 to 100 | 80 to 100 | 80 to 100 | 80 to 100 | 80 to 100 | 80 to 100 | 80 to 100 | 80 to 100 | excellent herbicidal activity against all tested species
2 | C#CCN1C(=O)C2(CC2)Oc2cc(F)c(N3C(=O)CC(C)CC3=O)cc21 [Example 29, 1-(7-Fluoro-3-oxo-4-(prop-2-yn-1-yl)-3,4-dihydrospiro[benzo[b][1,4]oxazine-2,1′-cyclopropan]-6-yl)-4-methylpiperidine-2,6-dione] | < 20 | 20 to 80 | 20 to 80 | 80 to 100 | 80 to 100 | 80 to 100 | 80 to 100 | 80 to 100 | 80 to 100 | 80 to 100 | 80 to 100 | 80 to 100 | excellent herbicidal activity against all tested species
3 | C#CCN1C(=O)C2(CC2)Oc2cc(F)c(/N=c3\sc(=O)n4n3CCCC4)cc21 [Example 31, (Z)-7-Fluoro-6-((3-oxotetrahydro-1H,3H-[1,3,4]thiadiazolo[3,4-a]pyridazin-1-ylidene)amino)-4-(prop-2-yn-1-yl)spiro[benzo[b][1,4]oxazine-2,1′-cyclopropan]-3(4H)-one] | 80 to 100 | 80 to 100 | 80 to 100 | 80 to 100 | 80 to 100 | 80 to 100 | 80 to 100 | 80 to 100 | 80 to 100 | 80 to 100 | 80 to 100 | 80 to 100 | excellent herbicidal activity against all tested species
4 | C#CCN1C(=O)C2(CC2)Oc2cc(F)c(-n3c(=O)cc(C(F)(F)F)n(C)c3=O)cc21 [Example 34, 3-(7-Fluoro-3-oxo-4-(prop-2-yn-1-yl)-3,4-dihydrospiro[benzo[b][1,4]oxazine-2,1′-cyclopropan]-6-yl)-1-methyl-6-(trifluoromethyl)pyrimidine-2,4(1H,3H)-dione] | 20 to 80 | 80 to 100 | 80 to 100 | 80 to 100 | 80 to 100 | 80 to 100 | 20 to 80 | 80 to 100 | 80 to 100 | 80 to 100 | 80 to 100 | 80 to 100 | excellent herbicidal activity against all tested species
5 | C#CCN1C(=O)C2(CC2)Oc2cc(F)c(-n3c(=O)cc(C(F)(F)F)n(CCC)c3=O)cc21 [Example 43] | 20 to 80 | 20 to 80 | 80 to 100 | 80 to 100 | 80 to 100 | 80 to 100 | 20 to 80 | 80 to 100 | 80 to 100 | 20 to 80 | 80 to 100 | 80 to 100 | excellent herbicidal activity against all tested species
6 | C#CCN1C(=O)C2(CC2)Oc2cc(F)c(N3C(=O)C4CCCN4C3=O)cc21 (stereo not shown) [Example 44, 2-(7-Fluoro-3-oxo-4-(prop-2-yn-1-yl)-3,4-dihydrospiro[benzo[b][1,4]oxazine-2,1′-cyclopropan]-6-yl)tetrahydro-1H-pyrrolo[1,2-c]imidazole-1,3(2H)-dione] | 80 to 100 | 80 to 100 | 80 to 100 | 80 to 100 | 80 to 100 | 80 to 100 | < 20 | 20 to 80 | 80 to 100 | 80 to 100 | 80 to 100 | 80 to 100 | excellent herbicidal activity against all tested species
7 | C#CCN1C(=O)C2(CC2)Oc2cc(F)c(N3C(=O)C4CCCCN4C3=O)cc21 (stereo not shown) [Example 47] | 80 to 100 | 80 to 100 | 80 to 100 | 80 to 100 | 80 to 100 | 80 to 100 | 20 to 80 | 80 to 100 | 80 to 100 | 80 to 100 | 80 to 100 | 80 to 100 | excellent herbicidal activity against all tested species
